Like-named read-outs stand apart in the source and are kept apart here.
Tests used:
[1] = tested on: PKCε−/− and PKCε+/+ mice; details: 2.0 g/kg i.p.
Method: Probes were perfused with artificial cerebrospinal fluid (aCSF), and animals were allowed to recover overnight. Mice were placed in open field chambers equipped with photobeams, and dialysis sample tubes were changed at 10 min intervals.

[2] = tested on: PKCε−/− and PKCε+/+ mice; test: loss of righting reflex (LORR) after intraperitoneal injection; type: in vivo, mouse; details: for LORR duration / sensitivity to sedative effects, PKCε−/− compared to wild-type: Example 3, earlier experiment, sedative doses of pentobarbital
[3] = tested on: PKCε−/− and PKCε+/+ mice; test: locomotor activity in activity chambers after intraperitoneal injection; type: in vivo, mouse; details: for locomotor response (distance traveled), PKCε−/− compared to PKCε+/+: i.p.: diazepam 0.5, 1.5, 4.0 mg/kg, muscimol 0.1, 0.2, 0.4 mg/kg, MK-801 0.01, 0.02, 0.03 mg/kg
[4] = tested on: PKCε−/− and PKCε+/+ mice; details: 2-14% ethanol vs water, two-bottle choice
[5] = tested on: GABAA receptor; test: 36Cl− uptake in cortical microsacs from PKCε−/− and PKCε+/+ mice (GABAA receptor function); type: biochemical, mouse; details: for activation of GABAA receptors (muscimol-stimulated Cl− uptake): 10^−12M to 10^−9M, 1 μM muscimol
[6] = tested on: PKCε−/− and PKCε+/+ mice; details: two weeks liquid diet containing 5% ethanol; 2, 4, 6, 7 hours after removal
Method: Withdrawal seizures known as handling-induced convulsions (HIC) can be induced in mice by handling them after chronic exposure to ethanol. […] Withdrawal seizures were evaluated in 4 PKCε^+/+ and 4 PKCε^−/− mice following two weeks exposure to a fully nutritious liquid diet containing 5% ethanol (Dyets, Bethlehem, Pa.) as the only source of food or fluid. Seizures were videotaped at 2, 4, 6, and 7 hours following removal of ethanol from the cage and rated by observers who were blind to the genotype and drug exposure. Data were averaged across time-points and mice.

[7] = tested on: PKCε; test: muscimol/flunitrazepam-stimulated 36Cl− uptake in saponin-permeabilized microsacs treated with PKCε inhibitor peptide; type: biochemical, mouse; details: for effect of peptide on the enhancing effect of flunitrazepam on muscimol-stimulated Cl− uptake: wild-type microsacs, 100 μM peptide, 1 μM muscimol and 0.1 μM flunitrazepam, 5 seconds
Method: GABAA receptor function was tested directly in wild-type and mutant mice. […] Following a five minute incubation in a shaking water bath at 34° C., chloride uptake in 200 μl membrane aliquots was initiated by the addition and immediate vortexing of 200 μl of a solution containing […] (0.2 μCi/ml of assay buffer). Drugs (muscimol, flunitrazepam, or ethanol) were added only in the ^36Cl^− solution. […] Hg) onto a 2.5 cm Whatman GF/C glass microfiber filter, using a Hoefer manifold (Hoefer Scientific, San Francisco, Calif.). The filters were washed with an additional 12 ml of cold assay buffer. Filters were submerged in Filtron-X (National Diagnostics) and the amount of radioactivity on the filters was determined by liquid scintillation spectrometry. Muscimol-dependent uptake was defined as the total amount of ^36Cl^− taken up while muscimol was present in the medium minus the amount of ^36Cl^− taken up when muscimol was not present.
Microsacs were then centrifuged again at 900× g for 15 min at 4° C. and re-suspended in assay buffer with protease inhibitors at 5 mg/ml immediately prior to assaying ^36Cl^− uptake.

[8] = ethanol 3.2, 3.6, 4.0 g/kg i.p.

CCO [ethanol]
extracellular dopamine levels in nucleus accumbens after administration ([1]; PKCε+/+ mice): transient increase in dopamine levels | extracellular dopamine levels in nucleus accumbens after administration ([1]; PKCε−/− mice): No change in dopamine levels | LORR duration / sensitivity to sedative effects, PKCε−/− compared to wild-type [2, 8]: significantly higher LORR duration | time required to regain righting reflex (LORR duration), PKCε−/− compared to PKCε+/+ ([2]; ethanol 3.2, 3.6, 4.0 g/kg i.p., Example 5): two-fold increase | increase in locomotor activity, PKCε−/− compared to PKCε+/+ ([3]; male mice, 2 g/kg ethanol i.p., 15-minute period): two-fold greater increase | reduction in ethanol preference, PKCε−/− compared to PKCε+/+ [4]: 75% | enhancement of muscimol-stimulated Cl− uptake, PKCε−/− microsacs compared to wild-type ([5]; 1 μM muscimol with 20 mM ethanol or 0.1 μM flunitrazepam): two-fold greater | reduction in withdrawal seizure severity (HIC score) compared to wildtype littermates [6]: 50%

NCc1cc(=O)[nH]o1 [muscimol]
locomotor response (distance traveled), PKCε−/− compared to PKCε+/+ [3]: indistinguishable | Cl− uptake stimulated by direct agonist, knockout compared to wild-type ([5]; 0-20 μM muscimol, 5 seconds): similar

C[C@]12N[C@H](Cc3ccccc31)c1ccccc12 [MK-801]
locomotor response (distance traveled), PKCε−/− compared to PKCε+/+ [3]: No differences

CN1C(=O)CN=C(c2ccccc2)c2cc(Cl)ccc21 [diazepam]
sensitivity to sedative effects (LORR), PKCε−/− compared to PKCε+/+ ([2]; diazepam 20, 30, 40 mg/kg i.p., Example 6): 30 fold | locomotor response (distance traveled), PKCε−/− compared to PKCε+/+ [3]: significant increase in distance traveled

CC(=O)[C@H]1CC[C@H]2[C@@H]3CC[C@H]4C[C@H](O)CC[C@]4(C)[C@H]3CC[C@]12C [allopregnanolone, 3alpha-hydroxy-5alpha-pregnan-20-one]
activation of GABAA receptors (muscimol-stimulated Cl− uptake) ([5]; microsacs from PKCε+/+ mice): comparatively little effect | activation of GABAA receptors (muscimol-stimulated Cl− uptake) ([5]; microsacs from PKCε−/− mice): substantially activate

εV1-2: selective inhibitor of PKCε, peptide EAVSLKPT
effect of peptide on muscimol and flunitrazepam-stimulated 36Cl− uptake ([7]; microsacs from PKCε−/− mice): did not affect | effect of peptide on the enhancing effect of flunitrazepam on muscimol-stimulated Cl− uptake [7]: markedly increased

S-εV1-2: scrambled version of the εV1-2 peptide, LSETKPAV
effect of peptide on the enhancing effect of flunitrazepam on muscimol-stimulated Cl− uptake [7]: no effect

CCCC(C)C1(CC)C(=O)NC(=O)NC1=O (centres unmarked) [pentobarbital]
LORR duration / sensitivity to sedative effects, PKCε−/− compared to wild-type [2, 8]: two-fold greater sensitivity | sensitivity to sedative effects (LORR), PKCε−/− compared to control mice ([2]; pentobarbital 30, 40, 50 mg/kg i.p., Example 6): three-fold greater sensitivity
